Assays:
Format in all cases: binding
Aptamer 21 [1] = assay: Capture of Aptamer 21 with click-biotinylated probes; settings: Aptamer 21 or Aptamer 21-E
Description: A 50 μL sample of 1 μM folded Aptamer 21 or Aptamer 21-E solution in folding buffer (20 mM TrisHCl pH 8, 100 mM KCl, 3 mM MgCl2) was added to a 0.5 μL aliquot of 0.5 mM ARK-729, ARK-2058, ARK-816, or ARK-2059 in DMSO or a DMSO-only control. The solution was incubated at 37° C. for 1 h and then irradiated with long wave UV light (˜365 nm) for 30 min in a UV crosslinker (Fisher Scientific). To this solution was added 0.5 μL of 10 mM DBCO-biotin (Click Chemistry Tools, cat. #A105) and 2 μL of 0.5 M EDTA pH 8 and then the solution was incubated at 65° C. for 2 h. The RNA was ethanol precipitated by adding 35 μL of water, 2 uL of 5 mg/mL glycogen, 10 μL 3 M NaOAc pH 5, and 250 μL ethanol, incubating at −80° C. for 1 h, centrifuging at 20000×g for 30 min, washing the pellet twice with 500 μL of 70% ethanol, and then air drying the pellet.
The RNA pellet was redissolved in 50 μL of 1× bind/wash buffer (20 mM TrisHCl pH 7, 100 mM KCl, 0.1% Tween-20). A 50 μL aliquot of MyOne Streptavidin C1 Dynabead slurry (Thermo) was captured on a magnet, washed twice with 50 μL of 1× bind/wash buffer, and then resuspended in 50 μL of the crosslinked RNA sample. The bead suspension was rotated at room temperature for 30 min and then washed twice with 100 μL of 1× bind/wash solution. […]

Aptamer 21 [2] = assay: Reverse transcriptase pausing (drop-off) gel assay of photo-crosslinking to Aptamer 21
Description: A solution of RNA at 2 to 5 μM in nuclease-free water was heated to 95° C. for 3 min and then cooled on ice for 2 min. This solution was diluted with ½ volume of 3×RNA folding buffer (60 mM TrisHCl pH 8, 300 mM KCl, 9 mM MgCl2) and incubated at 37° C. for 20 min. Folding was carried out immediately before use of the RNA in each experiment. In cases where a mixture of RNA molecules was used in vitro the RNAs were folded separately and then combined prior to the probing experiment.
Folded RNA (1 μM) was incubated with the photoaffinity probe (10 μM) in total 25 μL of buffer (20 mM TrisHCl pH 8, 100 mM KCl, 3 mM MgCl2) with 2.5% DMSO for 30 min at 37° C. to allow binding to come to equilibrium. The sample was then irradiated with long wave UV light (˜365 nm) for 30 min in a UV crosslinker (Fisher Scientific).
A 3.75 μL aliquot of 10 μM reverse transcription primer was added to the cross-linked RNA sample, which was then incubated for 5 min at 65° C. and then cooled on ice. The sample was then diluted to a final volume of 60 μL and final buffer concentration of 1× Protoscript-II buffer (New England Biolabs), 0.5 mM dNTPs, 10 mM DTT, 0.4 U/μL RNase Inhibitor (New England Biolabs), and 10 U/μL Protoscript-II (New England Biolabs). The reaction was incubated at 45° C. for 2 h, 65° C. for 20 min, and then 4° C.
The RNA was hydrolyzed by the addition of 4.8 μL of 2.5 M NaOH and heating at 95° C. for 5 min. The reaction was quenched by the addition of 0.9 μL of acetic acid. The cDNA was precipitated by the addition of 6.6 μL of 3 M sodium acetate pH 5 and 181 μL ethanol, cooling to −80° C. for 1 h, and then centrifuging at 20,500×g at 4° C. for 30 min. The cDNA pellet was washed twice with 500 μL of 70% ethanol and then air dried for 5 min.
The cDNA pellet was resuspended in 12 μL of 1×TBE-urea sample loading buffer (Bio-Rad) and heated to 95° C. for 5 min. The sample was then run on a pre-cast 8.6×6.7 cm TBE-urea 10% PAGE gel (Bio-Rad) at 120 V until the lower bromophenol blue dye reached the bottom of the gel. The gel was stained with 1×SYBR-gold (Invitrogen) in 1×TBE buffer at room temperature for 20 min covered from light. The gel fluorescence was imaged on an Azure c600 instrument.

Aptamer 21 [3] = assay: LC-MS analysis of cross-linked RNA
Description: Folded RNA (1.33 μM) was incubated with or without the photoaffinity probe (20 μM) in total 100 μL of buffer (20 mM TrisHCl pH 8, 100 mM KCl, 3 mM MgCl2) with 2% DMSO for 30 min at 37° C. to allow binding to come to equilibrium. The sample was then irradiated with long wave UV light (˜365 nm) for 30 min in a UV crosslinker (Fisher Scientific).
The RNA was then precipitated by adding 10 μL of 3 M sodium acetate pH 5 and 275 μL ethanol, cooling to −80° C. for 1 h, and then centrifuging at 20,500×g at 4° C. for 30 min. The RNA pellet was washed with 500 μL of 70% ethanol, air dried for 5 min, and then resuspended in 120 μL of water.
50 μL of RNA sample was injected onto Clarity 2.6 μm Oligo X-T column (50*2.1 mm, 60° C.), and the gradient and flowrate were as follows: 95% A/5% B to 75% A/25% B over 5 min, flowrate: 400 μL/min; 75% A/25% B to 30% A/70% B over 1 min, flowrate: 400 μL/min; 100% D over 1 min, flowrate: 500 μL/min; 95% A/5% B over 2 min, flowrate: 500 μL/min (A: 1% HFIPA (hexafluoroisopropyl alcohol), 0.1% DIEA (diisopropylethylamine), 1 μM EDTA (ethylenediamine tetraacetic acid) in H2O; B: 0.075% HFIPA, 0.0375% DIEA, 1 μM EDTA in 65/35 MeCN/H2O; D: 40/40/20% MeOH/MeCN/H2O); The LCMS instrument was a Thermo Finnigan LTQ, and ProMass deconvolution software coupled with Xcaliber were used for all data processing.

Aptamer 21-E = assay: Photo-crosslinking of ARK-547 with negative control Aptamer 21-E
Description: A 9.5 μL sample of folded RNA (2.6 μM) in buffer (20 mM TrisHCl pH 8, 100 mM KCl, 3 mM MgCl2) was added to a 0.5 μL aliquot of 1 mM ARK-547 in DMSO. The reaction was incubated for 10 min at 37° C., irradiated with long wave UV light (˜365 nm) for 30 min in a UV crosslinker (Fisher Scientific), and then kept on ice.
The samples of cross-linked RNA were diluted to a final volume of 20 μL and final reaction conditions of 1×T4 RNA ligase buffer (New England Biolabs), 5 U/μL T4 RNA ligase 2, truncated KQ (New England Biolabs), 16.5% PEG-8000, and 0.5 μM universal miRNA cloning linker (New England Biolabs). The reaction was incubated in a thermal cycler for 2.5 h cycling between 5 min at 16° C. and 3 min at 25° C. The RNA was then purified using Agencourt AMPure XP beads (Beckman Coulter) using the standard protocol from the manufacturer. […]
To remove excess primer, the sample was mixed with 4.5 μL of ExoSAP-IT, incubated at 37° C. for 15 min, and then quenched with 1 μL of 0.5 M EDTA pH 8. […] The concentration was determined by absorbance at 260 nm. […]
The concentrations of different PCR products were measured using the Denovix dsDNA fluorescence quantitation kit (Denovix) and multiplexed at equal concentrations with a 20% PhiX spike-in. Sequencing was performed on an Illumina MiSeq with 150 bp paired-end reads using the standard manufacturer protocol.

| Structure (SMILES) | RT pausing peaks after click-biotinylation and avidin bead enrichment (Aptamer 21 [1]) | cross-linking with Apt21 RNA (RT pausing) (Aptamer 21 [2]; 1 uM RNA, 10 uM probe (9 uM PreQ1 probe), UV ~360 nm) | shortened sequences produced in PEARL-seq reverse transcriptase pausing gel assay (Aptamer 21 [2]; FIG. 52) | covalent modification of the RNA by LC-MS (Aptamer 21 [3]) [%] | binding to negative control Aptamer 21-E (Aptamer 21-E) | photoadduct with Aptamer 21-E (Aptamer 21-E) |
| --- | --- | --- | --- | --- | --- | --- |
| COC(=O)C1=C(COCc2cn(CCOCCOCCNC(=O)c3cc(CN=[N+]=[N-])cc(N=[N+]=[N-])c3)nn2)NC(c2ccncc2)=NC1c1ccc(F)cc1Cl (stereo not drawn) [ARK-729] | RT pausing peaks specific to Aptamer 21 | – | – | – | – | – |
| COC(=O)C1=C(COCc2cn(CCOCCOCCNC(=O)CCC3(C)N=N3)nn2)NC(c2ccncc2)=NC1c1ccc(F)cc1Cl (stereo not drawn) [ARK-547] | – | specific and UV-dependent cross-linking | shortened sequences of particular lengths | 5 | does not bind | no photoadduct |
